Laboratory results as given in US6224850A, “Antiwrinkle cosmetic/pharmaceutical compositions comprising iridaceae extracts” (Societe L'Oreal S.A., priority 1996, dated 2001).

Assays:
Glycine receptor = Glycine receptor (Rattus norvegicus, UniProt P07727); test: biochemical; type: binding
[1] = test system: convulsions induced by strychnine in mice; conditions: mouse, in vivo
GABA-A receptor = type: binding, rat; conditions: dose displacing 50% of tritiated muscimol; nonlabelled muscimol

Glycine receptor, sequence (P07727 29-457): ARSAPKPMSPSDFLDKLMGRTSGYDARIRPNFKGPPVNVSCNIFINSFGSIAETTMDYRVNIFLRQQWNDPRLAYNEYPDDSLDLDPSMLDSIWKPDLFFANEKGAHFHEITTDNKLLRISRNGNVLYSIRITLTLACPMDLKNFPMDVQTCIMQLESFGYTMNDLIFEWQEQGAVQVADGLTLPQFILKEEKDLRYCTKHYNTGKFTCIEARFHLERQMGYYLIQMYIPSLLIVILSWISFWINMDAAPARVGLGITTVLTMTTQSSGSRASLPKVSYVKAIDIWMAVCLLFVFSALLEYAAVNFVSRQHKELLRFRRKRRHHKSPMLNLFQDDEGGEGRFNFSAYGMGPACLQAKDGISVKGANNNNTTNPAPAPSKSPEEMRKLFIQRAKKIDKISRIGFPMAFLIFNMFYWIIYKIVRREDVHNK
Glycine receptor, sequence (P20781 23-496, further chain): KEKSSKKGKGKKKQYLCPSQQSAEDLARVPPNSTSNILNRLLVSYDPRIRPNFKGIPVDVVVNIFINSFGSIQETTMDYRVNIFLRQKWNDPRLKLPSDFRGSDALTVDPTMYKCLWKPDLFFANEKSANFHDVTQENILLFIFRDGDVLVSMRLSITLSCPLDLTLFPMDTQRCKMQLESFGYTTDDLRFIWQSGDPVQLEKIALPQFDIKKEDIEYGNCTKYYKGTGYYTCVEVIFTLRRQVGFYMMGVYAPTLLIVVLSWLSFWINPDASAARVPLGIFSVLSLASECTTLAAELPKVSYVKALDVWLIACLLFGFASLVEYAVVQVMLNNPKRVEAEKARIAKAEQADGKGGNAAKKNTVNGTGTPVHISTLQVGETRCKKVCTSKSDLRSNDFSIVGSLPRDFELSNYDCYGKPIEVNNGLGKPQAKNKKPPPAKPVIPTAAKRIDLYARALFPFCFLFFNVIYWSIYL

`O=C1C[C@@H]2OCC=C3CN4CC[C@]56c7ccccc7N1[C@H]5[C@H]2[C@H]3C[C@H]46` [strychnine] was tested. Which IC50 (Glycine receptor) did it give?
Its IC50 is 26.9 nM.

For `CN1C(=O)CN=C(c2ccccc2)c2cc(Cl)ccc21` [Diazepam], which “Delay in the appearance of the convulsions” value [1] is on record?
Its value is 3431.

And the “Variation (%) of delay” value [1]?
The value was “+1190”.

With `NCc1cc(=O)[nH]o1` [muscimol] as the compound, how does the IC50 (GABA-A receptor) read?
Its IC50 is 8.2 nM.
